Experimental data from ChEMBL document CHEMBL4002607, “Sulfamic and succinic acid derivatives of 25-OH-PPD and their activities to MCF-7, A-549, HCT-116, and BGC-823 cell lines” (Bioorg Med Chem Lett, 2017).

Key:
MCF7 = experiment: Antiproliferative activity against human MCF7 cells after 48 hrs by MTT assay; assay type: functional, cell-based; settings: MCF7, 48 h
A549 [1] = experiment: Antiproliferative activity against human A549 cells after 48 hrs by MTT assay; assay type: functional, cell-based
HCT-116 = experiment: Antiproliferative activity against human HCT116 cells after 48 hrs by MTT assay; assay type: functional, cell-based
[2] = Antiproliferative activity against human IOSE-144 cells after 48 hrs by MTT assay; assay type: cell-based; settings: IOSE-144, 48 h
BGC-823 [3] = experiment: Antiproliferative activity against human BGC823 cells after 48 hrs by MTT assay; assay type: functional, cell-based; settings: BGC-823, 48 h
BGC-823 [4] = experiment: Antiproliferative activity against human BGC823 cells assessed as cell viability at 40 uM after 48 hrs by MTT assay relative to control; assay type: functional; settings: BGC-823, 48 h, read-out: Activity
A549 [5] = experiment: Antiproliferative activity against human A549 cells assessed as cell viability at 20 uM after 48 hrs by MTT assay relative to control; assay type: functional; settings: A549, 48 h, read-out: Activity
[6] = Homo sapiens, A549, 48 h, read-out: IC50
[7] = Homo sapiens, HCT-116, 48 h, read-out: IC50

Compound | IC50 (MCF7) [µM] | IC50 (A549 [1]; [6]) [µM] | IC50 (HCT-116; [7]) [µM] | IC50 [2] [µM] | IC50 (BGC-823 [3]) [µM] | viability at 40 µM (BGC-823 [4]) [%] | viability at 20 µM (A549 [5]) [%] | IC50 (HCT-116; hct-116) | IC50 (A549 [1]; a549)
CC(C)(O)CCC[C@@](C)(O)[C@H]1CC[C@]2(C)[C@@H]1[C@H](OC(=O)CCC(=O)O)C[C@@H]1[C@@]3(C)CC[C@H](OC(=O)CCC(=O)O)C(C)(C)[C@@H]3CC[C@]12C | 40.3 | > 100 | > 100 | > 100 | > 100 |  |  |  | 
CC(C)=CCC[C@@](C)(O)[C@H]1CC[C@]2(C)[C@@H]1[C@H](OS(N)(=O)=O)C[C@@H]1[C@@]3(C)CC[C@H](O)C(C)(C)[C@@H]3CC[C@]12C | 18.2 | 23.8 | 57.9 | > 100 | 25.5 | 19.9 |  |  | 
CC(C)(O)CCC[C@@](C)(OS(N)(=O)=O)[C@H]1CC[C@]2(C)[C@@H]1[C@H](O)C[C@@H]1[C@@]3(C)CC[C@H](OS(N)(=O)=O)C(C)(C)[C@@H]3CC[C@]12C | 12.4 | 8.8 | 41.5 | > 100 | 14.9 | 14.5 |  |  | 
C=C(CCCC(C)(C)O)[C@H]1CC[C@]2(C)[C@@H]1[C@H](OS(N)(=O)=O)C[C@@H]1[C@@]3(C)CC[C@H](OS(N)(=O)=O)C(C)(C)[C@@H]3CC[C@]12C | 30.3 | 24.1 | > 100 | > 100 | 37.7 |  |  |  | 
C=C(CCCC(C)(C)O)[C@H]1CC[C@]2(C)[C@@H]1[C@H](O)C[C@@H]1[C@@]3(C)CC[C@H](OS(N)(=O)=O)C(C)(C)[C@@H]3CC[C@]12C | 11.9 | 0.8 | 42.4 | > 100 | 21.6 | 24.7 | 9 |  | 
C=C(CCCC(C)(C)OS(N)(=O)=O)[C@H]1CC[C@]2(C)[C@@H]1[C@H](O)C[C@@H]1[C@@]3(C)CC[C@H](O)C(C)(C)[C@@H]3CC[C@]12C | 20.8 | 13.7 |  | > 100 | 32 | 39.9 |  | Not Active | 
CC(C)(O)CCC[C@@](C)(O)[C@H]1CC[C@]2(C)[C@@H]1[C@H](O)C[C@@H]1[C@@]3(C)CC[C@H](O)C(C)(C)[C@@H]3CC[C@]12C | 7.5 | 5.9 | 21.5 | > 100 | 33.2 | 40.1 | 36.5 |  | 
C=C(CCCC(C)(C)O)[C@H]1CC[C@]2(C)[C@@H]1[C@H](O)C[C@@H]1[C@@]3(C)CC[C@H](O)C(C)(C)[C@@H]3CC[C@]12C | 32.9 | 29.2 | > 100 | > 100 | 34.6 |  |  |  | 
CC(C)=CCC[C@@](C)(O)[C@H]1CC[C@]2(C)[C@@H]1[C@H](O)C[C@@H]1[C@@]3(C)CC[C@H](OS(N)(=O)=O)C(C)(C)[C@@H]3CC[C@]12C | 14.5 | 9.9 | 26.8 | > 100 | 22.1 | 17.1 |  |  | 
C=C(CCCC(C)(C)O)[C@H]1CC[C@]2(C)[C@@H]1[C@H](OS(N)(=O)=O)C[C@@H]1[C@@]3(C)CC[C@H](O)C(C)(C)[C@@H]3CC[C@]12C | 33.8 | 20.9 | > 100 | > 100 | > 100 |  |  |  | 
C=C(CCC=C(C)C)[C@H]1CC[C@]2(C)[C@@H]1[C@H](OS(N)(=O)=O)C[C@@H]1[C@@]3(C)CC[C@H](O)C(C)(C)[C@@H]3CC[C@]12C | 13.5 |  |  | > 100 | 25.9 | 21.2 |  | Not Active | Not Active
CC(C)(O)CCC[C@@](C)(O)[C@H]1CC[C@]2(C)[C@@H]1[C@H](OC(=O)CCC(=O)O)C[C@@H]1[C@@]3(C)CC[C@H](O)C(C)(C)[C@@H]3CC[C@]12C | 77.1 | > 100 | 75.3 | > 100 | > 100 |  |  |  | 
CC(C)(O)CCC[C@@](C)(O)[C@H]1CC[C@]2(C)[C@@H]1[C@H](O)C[C@@H]1[C@@]3(C)CC[C@H](OS(N)(=O)=O)C(C)(C)[C@@H]3CC[C@]12C | 14.6 | 0.2 |  | > 100 | 14 | 40 | 6 | Not Active | 
O=c1[nH]cc(F)c(=O)[nH]1 [FLUOROURACIL] | 19.2 | 10.5 | 29.2 |  | 34.8 |  |  |  | 
